Measurements from ChEMBL document CHEMBL1949519.
Each block holds one compound with its values, some of them ahead of it. Activity calls are given as the source filed them. No cut-off for these calls is given here.

Columns and labels:
Assay type in all cases: cell-based
Settings in all cases: COS-1
[1] = molecular target: T1, Long-wave-sensitive opsin 1 (Homo sapiens) (UniProt P04000); experiment: Inverse agonist activity at human red cone opsin expressed in COS1 cells assessed as transducer activity at 2 mM by radioactive filter binding assay
T1 sequence (whole entry): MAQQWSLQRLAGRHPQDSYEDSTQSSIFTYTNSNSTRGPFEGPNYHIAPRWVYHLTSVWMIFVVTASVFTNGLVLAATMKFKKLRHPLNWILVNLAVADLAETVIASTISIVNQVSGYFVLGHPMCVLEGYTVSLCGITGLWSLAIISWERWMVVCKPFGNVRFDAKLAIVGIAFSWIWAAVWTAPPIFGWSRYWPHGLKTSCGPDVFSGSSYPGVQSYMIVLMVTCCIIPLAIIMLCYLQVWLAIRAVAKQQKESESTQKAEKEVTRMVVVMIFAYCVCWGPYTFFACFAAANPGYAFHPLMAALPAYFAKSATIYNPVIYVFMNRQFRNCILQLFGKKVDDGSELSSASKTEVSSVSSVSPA

[2] = molecular target: T1, Long-wave-sensitive opsin 1 (Homo sapiens); experiment: Inverse agonist activity at human red cone opsin expressed in COS1 cells assessed as transducer activity at 20 uM by radioactive filter binding assay
[3] = molecular target: T1, Long-wave-sensitive opsin 1 (Homo sapiens); experiment: Agonist activity at human red cone opsin expressed in COS1 cells assessed as activation of transducer at 20 uM by radioactive filter binding assay
[4] = molecular target: T1, Long-wave-sensitive opsin 1 (Homo sapiens); experiment: Inverse agonist activity at human red cone opsin expressed in COS1 cells assessed as transducer activity at 200 uM by radioactive filter binding assay

- Activity [1]: Active
SMILES: CC1CCCC(C)C1 (stereo not given)

- Activity [2]: Active
SMILES: CC1=C(/C=C/C(C)=C\C=C\C=O)C(C)(C)CCC1

- Activity [3]: inactive
SMILES: CC1=C(/C=C/C(C)=C/C=C/C(C)=C/C=C/C=O)C(C)(C)CCC1

- Activity [4]: Active
SMILES: CC1=C(C=O)C(C)(C)CCC1

SMILES: C1CCCCC1
- Activity [1]: inactive
